Reference: ChEMBL document CHEMBL5223094, “Recent advancements in chromone as a privileged scaffold towards the development of small molecules for neurodegenerative therapeutics” (RSC Med Chem, 2022)

Experiments:
Homo sapiens [1] = species: Homo sapiens; assay: Selectivity index, ratio of IC50 for inhibition of recombinant human MAO-A to IC50 for inhibition of recombinant human MAO-B
[2] = target: T1, Amine oxidase [flavin-containing] A (Homo sapiens, UniProt P21397); assay: Inhibition of MAO-A (unknown origin) by fluorescence spectrophotometer analysis
T1 sequence (P21397 whole entry): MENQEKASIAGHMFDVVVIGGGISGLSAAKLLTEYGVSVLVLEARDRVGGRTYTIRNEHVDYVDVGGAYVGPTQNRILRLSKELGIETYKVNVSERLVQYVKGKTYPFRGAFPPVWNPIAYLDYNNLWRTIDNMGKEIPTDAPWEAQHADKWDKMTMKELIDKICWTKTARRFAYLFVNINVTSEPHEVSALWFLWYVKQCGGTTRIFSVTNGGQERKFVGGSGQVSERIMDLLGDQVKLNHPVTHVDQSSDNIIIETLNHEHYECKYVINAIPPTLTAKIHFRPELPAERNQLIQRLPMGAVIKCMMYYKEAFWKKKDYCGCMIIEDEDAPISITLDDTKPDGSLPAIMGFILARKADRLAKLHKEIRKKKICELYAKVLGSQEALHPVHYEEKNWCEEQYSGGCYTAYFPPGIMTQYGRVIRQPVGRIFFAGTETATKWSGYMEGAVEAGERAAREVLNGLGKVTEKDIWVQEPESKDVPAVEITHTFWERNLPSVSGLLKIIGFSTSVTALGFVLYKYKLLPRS

[3] = target: T2, Amine oxidase [flavin-containing] B (Homo sapiens, UniProt P27338); assay: Inhibition of MAO-B (unknown origin) by fluorescence spectrophotometer analysis
T2 sequence (P27338 whole entry): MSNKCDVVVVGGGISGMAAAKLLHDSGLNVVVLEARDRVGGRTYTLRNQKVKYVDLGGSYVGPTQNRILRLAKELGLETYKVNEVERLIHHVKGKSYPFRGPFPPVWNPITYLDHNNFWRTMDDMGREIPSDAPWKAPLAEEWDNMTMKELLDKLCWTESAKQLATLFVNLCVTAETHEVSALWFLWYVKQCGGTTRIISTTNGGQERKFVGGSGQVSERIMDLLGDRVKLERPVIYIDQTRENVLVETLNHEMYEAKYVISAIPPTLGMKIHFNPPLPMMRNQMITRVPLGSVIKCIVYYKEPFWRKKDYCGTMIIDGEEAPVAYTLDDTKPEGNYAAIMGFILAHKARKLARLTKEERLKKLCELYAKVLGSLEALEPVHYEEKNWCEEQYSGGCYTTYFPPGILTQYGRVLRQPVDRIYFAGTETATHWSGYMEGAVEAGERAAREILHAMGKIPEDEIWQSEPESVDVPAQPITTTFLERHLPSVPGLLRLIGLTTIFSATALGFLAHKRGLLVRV

[4] = target: T1, Amine oxidase [flavin-containing] A; assay: Inhibition of MAO-A (unknown origin)
Cholinesterase = Cholinesterase (Homo sapiens, UniProt P06276); assay: Inhibition of BuChE (unknown origin) using butyrylthiocholine iodide as substrate preincubated for 20 mins followed by substrate addition by Ellman's method
Cholinesterase, sequence (P06276 whole entry): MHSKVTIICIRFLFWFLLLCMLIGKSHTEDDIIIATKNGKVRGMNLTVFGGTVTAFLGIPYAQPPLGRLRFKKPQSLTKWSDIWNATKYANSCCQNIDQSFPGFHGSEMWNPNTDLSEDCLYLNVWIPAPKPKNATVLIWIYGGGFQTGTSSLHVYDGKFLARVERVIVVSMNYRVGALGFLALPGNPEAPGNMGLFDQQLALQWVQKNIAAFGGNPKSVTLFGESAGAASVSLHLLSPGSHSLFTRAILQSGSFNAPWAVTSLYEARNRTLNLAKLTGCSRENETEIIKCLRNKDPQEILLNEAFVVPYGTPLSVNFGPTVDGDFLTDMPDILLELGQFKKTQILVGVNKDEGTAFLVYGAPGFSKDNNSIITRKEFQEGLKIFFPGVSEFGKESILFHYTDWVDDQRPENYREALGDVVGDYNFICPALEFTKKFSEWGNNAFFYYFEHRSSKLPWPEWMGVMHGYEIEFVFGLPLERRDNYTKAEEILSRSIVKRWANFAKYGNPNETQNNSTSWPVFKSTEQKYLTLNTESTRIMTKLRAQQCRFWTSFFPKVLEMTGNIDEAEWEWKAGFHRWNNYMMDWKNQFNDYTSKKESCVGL

Acetylcholinesterase = Acetylcholinesterase (Homo sapiens, UniProt P22303); assay: Inhibition of AChE (unknown origin) using acetylthiocholine iodide as substrate preincubated for 20 mins followed by substrate addition by Ellman's method
Acetylcholinesterase, sequence (P22303 whole entry): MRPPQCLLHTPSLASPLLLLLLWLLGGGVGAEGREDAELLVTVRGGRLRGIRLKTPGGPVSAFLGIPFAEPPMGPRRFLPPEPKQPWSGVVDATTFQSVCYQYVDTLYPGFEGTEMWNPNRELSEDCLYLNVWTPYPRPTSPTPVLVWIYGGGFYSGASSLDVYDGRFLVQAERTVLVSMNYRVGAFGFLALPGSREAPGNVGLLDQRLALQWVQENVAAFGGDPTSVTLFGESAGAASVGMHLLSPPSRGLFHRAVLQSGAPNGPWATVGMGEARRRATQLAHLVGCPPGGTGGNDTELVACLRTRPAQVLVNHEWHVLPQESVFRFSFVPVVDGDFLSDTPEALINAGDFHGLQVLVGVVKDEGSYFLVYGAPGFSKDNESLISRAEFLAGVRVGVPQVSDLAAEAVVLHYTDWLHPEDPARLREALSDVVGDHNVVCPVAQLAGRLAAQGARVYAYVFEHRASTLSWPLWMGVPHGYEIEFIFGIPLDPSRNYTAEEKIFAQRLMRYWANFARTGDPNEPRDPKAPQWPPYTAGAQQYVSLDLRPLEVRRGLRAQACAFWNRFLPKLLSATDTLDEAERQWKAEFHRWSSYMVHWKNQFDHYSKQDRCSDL

Homo sapiens [5] = species: Homo sapiens; assay: Selectivity index, ratio of IC50 for inhibition of human MAO-B to IC50 for inhibition of human MAO-A
[6] = target: T2, Amine oxidase [flavin-containing] B; assay: Inhibition of human MAO-B using tyramine as substrate preincubated for 10 mins followed by substrate addition and measured after 30 mins by fluorometric method
[7] = target: Amyloid-beta precursor protein (Homo sapiens) (UniProt P05067); assay: Inhibition of amyloid beta (1 to 42) (unknown origin) aggregation at 50 uM incubated for 24 hrs by ThT fluorometric assay
Amyloid-beta precursor protein (Homo sapiens), sequence (P05067 whole entry): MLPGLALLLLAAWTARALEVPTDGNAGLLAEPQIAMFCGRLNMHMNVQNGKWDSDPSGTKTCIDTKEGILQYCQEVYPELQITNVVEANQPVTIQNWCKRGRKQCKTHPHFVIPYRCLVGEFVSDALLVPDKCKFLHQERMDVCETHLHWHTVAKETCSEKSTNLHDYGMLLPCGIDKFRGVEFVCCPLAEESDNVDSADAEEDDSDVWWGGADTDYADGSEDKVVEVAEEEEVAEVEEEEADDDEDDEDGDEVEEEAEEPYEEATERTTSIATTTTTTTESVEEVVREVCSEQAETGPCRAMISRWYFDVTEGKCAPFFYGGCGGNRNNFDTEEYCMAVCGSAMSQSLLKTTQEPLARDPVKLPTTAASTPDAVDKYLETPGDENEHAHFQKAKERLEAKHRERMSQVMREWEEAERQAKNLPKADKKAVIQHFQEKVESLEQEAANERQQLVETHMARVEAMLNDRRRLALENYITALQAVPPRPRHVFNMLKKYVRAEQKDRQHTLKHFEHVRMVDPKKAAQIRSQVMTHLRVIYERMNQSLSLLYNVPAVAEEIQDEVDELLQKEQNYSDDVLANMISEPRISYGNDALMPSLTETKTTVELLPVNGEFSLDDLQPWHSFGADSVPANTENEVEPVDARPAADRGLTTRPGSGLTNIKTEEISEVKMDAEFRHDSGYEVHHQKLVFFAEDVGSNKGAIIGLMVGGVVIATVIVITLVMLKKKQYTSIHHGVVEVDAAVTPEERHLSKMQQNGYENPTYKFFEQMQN

[8] = target: T2, Amine oxidase [flavin-containing] B; assay: Inhibition of recombinant human MAO-B using kynuramine as substrate preincubated for 10 mins followed by enzyme addition and measured after 20 mins by fluorescent microplate reader analysis
Homo sapiens [9] = species: Homo sapiens; assay: Selectivity index, ratio of IC50 for inhibition of recombinant human MAO-B to IC50 for inhibition of recombinant human MAO-A
Homo sapiens [10] = species: Homo sapiens; assay: Selectivity index, ratio of IC50 for inhibition of MAO-B (unknown origin) to IC50 for inhibition of MAO-A (unknown origin)
Beta-secretase 1 = Beta-secretase 1 (Homo sapiens, UniProt P56817); assay: Inhibition of recombinant human BACE-1 expressed in baculovirus using Rh-EVNLDAEFK-Quencher as substrate incubated for 60 mins by FRET assay
Beta-secretase 1, sequence (P56817 whole entry): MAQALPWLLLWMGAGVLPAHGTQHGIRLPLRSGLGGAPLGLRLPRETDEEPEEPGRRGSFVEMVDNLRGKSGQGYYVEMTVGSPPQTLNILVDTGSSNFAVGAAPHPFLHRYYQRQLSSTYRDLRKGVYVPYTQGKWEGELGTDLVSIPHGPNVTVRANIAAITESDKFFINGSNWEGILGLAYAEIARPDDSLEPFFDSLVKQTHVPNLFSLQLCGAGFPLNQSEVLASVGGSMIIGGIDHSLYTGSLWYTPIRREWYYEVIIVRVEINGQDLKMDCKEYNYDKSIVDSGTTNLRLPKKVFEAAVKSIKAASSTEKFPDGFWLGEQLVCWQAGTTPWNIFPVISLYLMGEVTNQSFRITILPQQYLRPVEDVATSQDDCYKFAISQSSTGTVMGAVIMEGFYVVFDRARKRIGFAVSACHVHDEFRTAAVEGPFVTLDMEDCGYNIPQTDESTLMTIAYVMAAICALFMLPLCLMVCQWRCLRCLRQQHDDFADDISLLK

SH-SY5Y = assay: Neuroprotective activity against 6-OHDA-induced cell death in human SH-SY5Y cells assessed as cell viability; type: functional, cell-based

For `COc1ccc2oc(/C=C/c3ccc(Cl)cc3)cc(=O)c2c1`, the Ratio IC50 (Homo sapiens [1]) was 1500.

`O=c1cc(-c2ccc(Cl)cc2)oc2ccc(Cn3cc(Nc4ccc(F)cc4)nn3)cc12` showed an IC50 [2] of 1600 nM and an IC50 [3] of 2100 nM.

`COc1ccc2oc(-n3cncn3)cc(=O)c2c1` was tested, and the IC50 [4] was 23 nM.

`O=c1c(O)c(-c2ccccc2)oc2cc(Br)c(I)cc12` showed an IC50 (Cholinesterase) of 6000 nM and an IC50 (Acetylcholinesterase) of 10000 nM.

Molecule `COc1ccc(NC(=O)c2c(OCc3ccccc3)ccc3c(=O)c(C)c(C)oc23)cc1` has a Ratio IC50 (Homo sapiens [5]) of 324 and an IC50 [6] of 100 nM.

`COc1cccc2oc3c(c(=O)c12)[C@H](O)CC3` was tested, and the inhibition [7] was 74%.

In the case of `COc1ccc2c(=O)cc(-n3ccc4ccccc43)oc2c1`, the IC50 [8] is reported as 150 nM and the Ratio IC50 (Homo sapiens [9]) is reported as greater than 670.

Molecule `COc1ccc2ccn(-c3cc(=O)c4ccccc4o3)c2c1` has an IC50 [8] of 150 nM and a Ratio IC50 (Homo sapiens [9]) greater than 670.

`O=c1cc(-c2ccc(Cl)cc2)oc2ccc(Cn3cc(Oc4cccc(O)c4)nn3)cc12` gave a Ratio IC50 (Homo sapiens [10]) greater than 14.

Work on `COc1ccc(-c2oc3cc(Br)c(I)cc3c(=O)c2O)cc1` yielded an IC50 (Beta-secretase 1) of 16000 nM.

Work on `COCOc1cc2occ(-c3ccc(OC)cc3)c(=O)c2c2c1CC(O)C(C)(C)O2` (stereo unspecified) yielded an EC50 (SH-SY5Y) of 500 nM.
